Experimental data from US8134007B2, “Pyridine derivatives” (Pfizer Inc., priority 2007, dated 2012).
Like-named read-outs stand apart in the source and are kept apart here.

How the values were obtained:
Type in all cases: cell-based
Human Nav1.5 = molecular target: T1, Human Nav1.5 (Homo sapiens, UniProt Q14524); test: Nav1.5 Assay (VIPR, HEK293 cells); settings: HEK293 cells expressing Human Nav1.5; average of replicates; read-out: Nav1.5 IC50
T1 construct: expressed in transfected cells; host or cells: HEK293
T1 sequence (Q14524 whole entry): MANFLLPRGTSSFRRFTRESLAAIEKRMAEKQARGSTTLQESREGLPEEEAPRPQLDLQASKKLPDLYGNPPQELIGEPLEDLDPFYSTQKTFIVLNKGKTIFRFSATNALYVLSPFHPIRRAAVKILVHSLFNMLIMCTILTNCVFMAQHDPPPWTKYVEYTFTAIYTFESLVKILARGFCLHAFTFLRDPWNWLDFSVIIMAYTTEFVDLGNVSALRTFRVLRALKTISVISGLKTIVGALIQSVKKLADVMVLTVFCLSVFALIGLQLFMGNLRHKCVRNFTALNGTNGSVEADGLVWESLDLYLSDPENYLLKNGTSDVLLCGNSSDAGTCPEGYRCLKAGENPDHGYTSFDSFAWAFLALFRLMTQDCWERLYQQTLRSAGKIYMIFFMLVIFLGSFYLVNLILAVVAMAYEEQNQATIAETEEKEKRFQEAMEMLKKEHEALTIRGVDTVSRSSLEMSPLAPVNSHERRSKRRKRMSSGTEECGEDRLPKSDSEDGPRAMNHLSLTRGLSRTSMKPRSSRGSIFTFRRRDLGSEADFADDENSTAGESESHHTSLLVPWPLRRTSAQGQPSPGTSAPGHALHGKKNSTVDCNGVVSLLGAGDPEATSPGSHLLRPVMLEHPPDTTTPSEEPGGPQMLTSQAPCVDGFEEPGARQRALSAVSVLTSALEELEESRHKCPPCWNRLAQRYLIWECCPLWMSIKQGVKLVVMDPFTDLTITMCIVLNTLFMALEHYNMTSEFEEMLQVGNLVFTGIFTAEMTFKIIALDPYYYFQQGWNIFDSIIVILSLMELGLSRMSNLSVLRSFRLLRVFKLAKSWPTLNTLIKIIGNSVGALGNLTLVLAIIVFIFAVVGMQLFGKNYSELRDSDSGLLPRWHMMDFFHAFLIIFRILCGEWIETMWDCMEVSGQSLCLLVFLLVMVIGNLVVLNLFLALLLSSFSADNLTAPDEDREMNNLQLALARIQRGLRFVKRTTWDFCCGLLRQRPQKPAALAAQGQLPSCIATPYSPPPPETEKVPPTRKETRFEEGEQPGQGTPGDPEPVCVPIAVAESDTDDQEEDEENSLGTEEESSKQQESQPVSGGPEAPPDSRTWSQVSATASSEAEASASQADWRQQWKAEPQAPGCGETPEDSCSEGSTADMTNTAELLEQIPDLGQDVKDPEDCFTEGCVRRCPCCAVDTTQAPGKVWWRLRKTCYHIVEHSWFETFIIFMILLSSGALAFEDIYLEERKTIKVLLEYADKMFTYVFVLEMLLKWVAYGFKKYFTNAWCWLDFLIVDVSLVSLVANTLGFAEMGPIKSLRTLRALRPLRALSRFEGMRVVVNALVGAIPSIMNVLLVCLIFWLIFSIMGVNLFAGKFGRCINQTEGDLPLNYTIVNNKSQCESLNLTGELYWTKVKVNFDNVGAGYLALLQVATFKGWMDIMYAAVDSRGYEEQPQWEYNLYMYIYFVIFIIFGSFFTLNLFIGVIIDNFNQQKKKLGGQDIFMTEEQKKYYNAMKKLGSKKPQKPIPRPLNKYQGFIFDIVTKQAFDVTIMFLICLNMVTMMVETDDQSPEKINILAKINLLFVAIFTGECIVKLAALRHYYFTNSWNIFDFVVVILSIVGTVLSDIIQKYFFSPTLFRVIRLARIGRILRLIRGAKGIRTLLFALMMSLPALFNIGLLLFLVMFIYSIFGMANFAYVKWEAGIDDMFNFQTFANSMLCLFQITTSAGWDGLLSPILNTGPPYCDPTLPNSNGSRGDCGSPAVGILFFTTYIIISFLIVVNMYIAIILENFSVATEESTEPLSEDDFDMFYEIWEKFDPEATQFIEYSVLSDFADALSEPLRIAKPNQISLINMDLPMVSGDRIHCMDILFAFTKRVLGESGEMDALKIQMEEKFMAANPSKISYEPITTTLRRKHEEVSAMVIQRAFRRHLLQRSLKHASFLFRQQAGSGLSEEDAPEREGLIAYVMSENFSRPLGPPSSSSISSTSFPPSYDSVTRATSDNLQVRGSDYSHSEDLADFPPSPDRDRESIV
Description: The Nav1.5 assay is performed in HEK293 cells expressing Human Nav1.5 in the same way as the Nav1.8 assay.
Where replicate experiments were conducted resulting in multiple sets of data for a test compound, the data presented represent the average value from all replicate experiments.

Human Nav1.8 = molecular target: T2, Human Nav1.8 (Homo sapiens, UniProt Q9Y5Y9); test: VIPR Assay for Nav1.8 Compounds (FRET membrane potential, deltamethrin opener); settings: VIPR FRET membrane potential assay, deltamethrin opener; average of replicates; read-out: Nav1.8 IC50
T2 construct: expressed in transfected cells; host or cells: HEK293
T2 sequence (Q9Y5Y9 whole entry): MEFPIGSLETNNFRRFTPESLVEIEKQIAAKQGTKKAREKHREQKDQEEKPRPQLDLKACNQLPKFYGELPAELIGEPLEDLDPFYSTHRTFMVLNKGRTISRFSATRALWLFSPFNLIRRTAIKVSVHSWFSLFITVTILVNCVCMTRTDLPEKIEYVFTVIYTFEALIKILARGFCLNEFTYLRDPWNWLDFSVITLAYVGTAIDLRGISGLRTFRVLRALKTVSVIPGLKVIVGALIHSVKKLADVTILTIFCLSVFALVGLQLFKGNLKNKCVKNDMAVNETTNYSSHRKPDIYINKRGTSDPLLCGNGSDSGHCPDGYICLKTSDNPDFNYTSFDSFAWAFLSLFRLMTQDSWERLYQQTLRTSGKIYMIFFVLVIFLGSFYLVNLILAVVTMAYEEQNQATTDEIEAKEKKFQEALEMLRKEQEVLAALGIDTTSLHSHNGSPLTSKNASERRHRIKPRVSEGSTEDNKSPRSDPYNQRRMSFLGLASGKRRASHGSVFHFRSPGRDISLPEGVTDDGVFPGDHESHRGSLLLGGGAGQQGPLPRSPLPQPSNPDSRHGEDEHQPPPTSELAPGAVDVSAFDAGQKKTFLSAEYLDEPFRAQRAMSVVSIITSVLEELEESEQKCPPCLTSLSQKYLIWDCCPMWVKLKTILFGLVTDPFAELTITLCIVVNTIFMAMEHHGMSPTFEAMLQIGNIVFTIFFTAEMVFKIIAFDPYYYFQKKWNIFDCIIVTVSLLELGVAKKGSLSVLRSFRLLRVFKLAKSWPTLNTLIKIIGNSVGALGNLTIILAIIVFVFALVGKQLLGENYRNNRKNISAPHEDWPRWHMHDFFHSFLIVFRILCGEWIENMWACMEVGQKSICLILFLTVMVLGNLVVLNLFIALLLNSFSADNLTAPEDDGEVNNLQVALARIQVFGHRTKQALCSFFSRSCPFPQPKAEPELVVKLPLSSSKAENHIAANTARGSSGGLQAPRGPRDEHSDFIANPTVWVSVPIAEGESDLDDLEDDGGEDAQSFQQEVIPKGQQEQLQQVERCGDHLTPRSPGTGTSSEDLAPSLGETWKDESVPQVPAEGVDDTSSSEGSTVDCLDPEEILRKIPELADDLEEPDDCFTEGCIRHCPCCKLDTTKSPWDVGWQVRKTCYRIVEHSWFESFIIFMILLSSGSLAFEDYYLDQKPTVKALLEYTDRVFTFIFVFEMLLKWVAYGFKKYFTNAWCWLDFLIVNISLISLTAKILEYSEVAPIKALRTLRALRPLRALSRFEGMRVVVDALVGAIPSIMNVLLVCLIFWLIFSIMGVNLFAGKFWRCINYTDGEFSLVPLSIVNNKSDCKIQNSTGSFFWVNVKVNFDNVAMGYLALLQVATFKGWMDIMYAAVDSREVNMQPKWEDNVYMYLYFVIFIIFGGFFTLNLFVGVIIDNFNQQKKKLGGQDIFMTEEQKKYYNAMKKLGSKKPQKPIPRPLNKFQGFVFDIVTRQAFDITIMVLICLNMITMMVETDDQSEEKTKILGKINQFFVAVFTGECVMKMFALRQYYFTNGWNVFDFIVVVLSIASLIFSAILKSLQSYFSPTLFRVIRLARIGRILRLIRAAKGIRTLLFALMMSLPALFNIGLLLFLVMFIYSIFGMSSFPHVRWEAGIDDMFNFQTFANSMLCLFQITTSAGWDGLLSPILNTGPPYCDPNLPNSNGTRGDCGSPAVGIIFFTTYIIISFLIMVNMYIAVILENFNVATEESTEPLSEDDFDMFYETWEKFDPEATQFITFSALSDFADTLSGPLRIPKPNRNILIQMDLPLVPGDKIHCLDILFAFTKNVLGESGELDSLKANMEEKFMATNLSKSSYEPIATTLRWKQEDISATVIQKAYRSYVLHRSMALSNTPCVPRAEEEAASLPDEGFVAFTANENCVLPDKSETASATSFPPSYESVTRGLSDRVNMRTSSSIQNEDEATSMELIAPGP

[1] = system: tetrodotoxin-sensitive voltage-gated sodium channels including NaV1.2, NaV1.3 and NaV1.7; test: TTX-S Assay (VIPR, SHSY-5Y cell line, veratridine opener)
[2] = read-out: TTX-S IC50, veratridine 50 μM opener, average of replicates

Compound | IC50 (Human Nav1.5) [µM] | IC50 (Human Nav1.8) [µM] | IC50 [1, 2] [µM] | IC50 ([1]; veratridine 50 μM opener, average of replicates, read-out: TTX-S IC50) [µM]
CCn1nccc1C(=O)Nc1ccc(-c2cc(OC)ccc2Cl)c(N)n1 [Example 52, N-[6-Amino-5-(2-chloro-5-methoxyphenyl)pyridin-2-yl]-1-ethyl-1H-pyrazole-5-carboxamide] | 16 | 0.95 | 6.4 | –
CCn1nccc1C(=O)Nc1ccc(-c2ccc(F)cc2Cl)c(N)n1 [Example 55, N-[6-Amino-5-(2-chloro-4-fluorophenyl)pyridin-2-yl]-1-ethyl-1H-pyrazole-5-carboxamide] | > 32 | 23 | > 32 | –
Cc1nocc1C(=O)Nc1ccc(-c2ccccc2F)c(N)n1 [Example 33, N-[6-Amino-5-(2-fluorophenyl)pyridin-2-yl]-3-methylisoxazole-4-carboxamide] | > 32 | 6.5 | 23 | –
Cc1nocc1C(=O)Nc1ccc(-c2ccccc2Cl)c(N)n1 [Example 26, N-[6-Amino-5-(2-chlorophenyl)pyridin-2-yl]-3-methylisoxazole-4-carboxamide] | 11 | 0.56 | 8.5 | –
Cn1nccc1C(=O)Nc1ccc(-c2cc(Cl)ccc2OC(F)(F)F)c(N)n1 [Example 16, N-{6-Amino-5-[5-chloro-2-(trifluoromethoxy)phenyl]pyridin-2-yl}-1-methyl-1H-pyrazole-5-carboxamide] | 11 | 1.9 | 9.6 | –
Cn1nccc1C(=O)Nc1ccc(-c2cc(OC(F)(F)F)ccc2Cl)c(N)n1 [Example 18, N-{6-Amino-5-[2-chloro-5-(trifluoromethoxy)phenyl]pyridin-2-yl}-1-methyl-1H-pyrazole-5-carboxamide] | 8.5 | 1.6 | 1.8 | –
Cn1nncc1C(=O)Nc1ccc(-c2cc(F)ccc2Cl)c(N)n1 [Example 86, N-[6-Amino-5-(2-chloro-5-fluorophenyl)pyridin-2-yl]-1-methyl-1H-1,2,3-triazole-5-carboxamide] | 7.5 | 5.3 | 19 | –
Cc1nocc1C(=O)Nc1ccc(-c2cc(Cl)cc(Cl)c2)c(N)n1 [Example 31, N-[6-Amino-5-(3,5-dichlorophenyl)pyridin-2-yl]-3-methylisoxazole-4-carboxamide] | 30 | 3.9 | 20 | –
Cc1nocc1C(=O)Nc1ccc(-c2cc(O)ccc2Cl)c(N)n1 [Example 175, N-[6-amino-5-(2-chloro-5-hydroxyphenyl)pyridin-2-yl]-3-methylisoxazole-4-carboxamide] | > 32 | 23 | 20 | –
Cc1nocc1C(=O)Nc1ccc(-c2ccccc2OC(F)F)c(N)n1 [Example 38, N-{6-Amino-5-[2-(difluoromethoxy)phenyl]pyridin-2-yl}-3-methylisoxazole-4-carboxamide] | 25 | 2.6 | 26 | –
COCc1oncc1C(=O)Nc1ccc(-c2ccccc2OC(F)(F)F)c(N)n1 [Example 93] | > 32 | 1.5 | 7.1 | –
Cc1nocc1C(=O)Nc1ccc(-c2cc(F)ccc2C(F)(F)F)c(N)n1 [Example 39, N-{6-Amino-5-[5-fluoro-2-(trifluoromethyl)phenyl]pyridin-2-yl}-3-methylisoxazole-4-carboxamide] | 21 | 0.93 | 13 | –
Cn1nccc1C(=O)Nc1ccc(-c2ccc(OC(F)(F)F)c(F)c2)c(N)n1 [Example 121] | 8.6 | 10 | 3.2 | –
CCn1nccc1C(=O)Nc1ccc(-c2cc(Cl)ccc2OC(F)(F)F)c(N)n1 [Example 63, N-{6-Amino-5-[5-chloro-2-(trifluoromethoxy)phenyl]pyridin-2-yl}-1-ethyl-1H-pyrazole-5-carboxamide] | 16 | 4.3 | 4.4 | –
CC(C)n1nccc1C(=O)Nc1ccc(-c2cc(F)ccc2Cl)c(N)n1 [Example 67, N-[6-Amino-5-(2-chloro-5-fluorophenyl)pyridin-2-yl]-1-isopropyl-1H-pyrazole-5-carboxamide] | 31 | 5 | 22 | –
Cn1nccc1C(=O)Nc1ccc(-c2cccc(Cl)c2Cl)c(N)n1 [Example 9, N-[6-Amino-5-(2,3-dichlorophenyl)pyridin-2-yl]-1-methyl-1H-pyrazole-5-carboxamide] | 27 | 4.2 | > 32 | –
Cn1nccc1C(=O)Nc1ccc(-c2ccccc2OC(F)(F)F)c(N)n1 [Example 11, N-{6-Amino-5-[2-(trifluoromethoxy)pheny]pyridin-2-yl}-1-methyl-1H-pyrazole-5-carboxamide] | 18 | 2.4 | – | 11
COCc1oncc1C(=O)Nc1ccc(-c2cc(F)ccc2Cl)c(N)n1 [Example 92] | 19 | 0.57 | 17 | –
Cn1nncc1C(=O)Nc1ccc(-c2cc(Cl)ccc2Cl)c(N)n1 [Example 80, N-[6-Amino-5-(2,5-dichlorophenyl)pyridin-2-yl]-1-methyl-1H-1,2,3-triazole-5-carboxamide] | 15 | 3.4 | 15 | –
COc1cc(Cl)c(Cl)c(-c2ccc(NC(=O)c3cnnn3C)nc2N)c1 [Example 81, N-[6-Amino-5-(2,3-dichloro-5-methoxyphenyl)pyridin-2-yl]-1-methyl-1H-1,2,3-triazole-5-carboxamide] | 2.9 | 1.1 | 7.5 | –
Cc1nocc1C(=O)Nc1ccc(-c2cccc3c2OCCO3)c(N)n1 [Example 35, N-[6-Amino-5-(2,3-dihydro-1,4-benzodioxin-5-yl)pyridin-2-yl]-3-methylisoxazole-4-carboxamide] | > 32 | 11 | > 32 | –
CC(C)n1nccc1C(=O)Nc1ccc(-c2cc(OC(F)(F)F)ccc2Cl)c(N)n1 [Example 69, N-{6-Amino-5-[2-chloro-5-(trifluoromethoxy)phenyl]pyridin-2-yl}-1-isopropyl-1H-pyrazole-5-carboxamide] | 16 | 16 | 3.6 | –
CCn1nccc1C(=O)Nc1ccc(-c2cc(F)ccc2Cl)c(N)n1 [Example 54, N-[6-Amino-5-(2-chloro-5-fluorophenyl)pyridin-2-yl]-1-ethyl-1H-pyrazole-5-carboxamide] | 20 | 1.2 | 18 | –
CCn1nccc1C(=O)Nc1ccc(-c2ccccc2OC(F)(F)F)c(N)n1 [Example 59, N-{6-Amino-5-[2-(trifluoromethoxy)phenyl]pyridin-2-yl}-1-ethyl-1H-pyrazole-5-carboxamide] | 31 | 3.6 | 17 | –
CCn1nccc1C(=O)Nc1ccc(-c2ccccc2C(F)(F)F)c(N)n1 [Example 60, N-{6-Amino-5-[2-(trifluoromethyl)phenyl]pyridin-2-yl}-1-ethyl-1H-pyrazole-5-carboxamide] | 20 | 4.3 | > 32 | –
